The nature of data set [1]: logP by HPLC on reversed-phase columns (C 18), method [a], acidic range pH 2.3. It counts as physicochemical. As to the method:
(§1) The logP values were determined in accordance with EEC Directive 79/831 Annex V.A8 by HPLC (High Performance Liquid Chromatography) on reversed-phase columns (C 18), using the methods below:
[a] The determination is carried out in the acidic range at pH 2.3 using the mobile phases 0.1% aqueous phosphoric acid and acetonitrile, linear gradient from 10% acetonitrile to 95% acetonitrile.

Data set [2] in a line: logP by LC-MS on reversed-phase columns (C 18), method [c], neutral range pH 7.8. It counts as physicochemical. Particulars: pH 7.8. As to the method:
as §1
[c] The LC-MS determination in the neutral range is carried out at pH 7.8 using the mobile phases 0.001 molar aqueous ammonium bicarbonate solution and acetonitrile, linear gradient from 10% acetonitrile to 95% acetonitrile.

Another data set concerns Sphaerotheca fuliginea. The experiment in a line: Sphaerotheca test (cucumber) / protective. Format: in vivo. Particulars: Podosphaera fuliginea, 168 h, active compound concentration 500 ppm, evaluation 7 days after inoculation, read-out: efficacy. The protocol: The plants are subsequently placed in a greenhouse at 70% relative atmospheric humidity and a temperature of 23° C.

For the next data set, the system named is Leptosphaeria nodorum. The experiment in a line: Leptosphaeria nodorum test (wheat) / protective. It counts as in vivo. Particulars: Parastagonospora nodorum, active compound concentration 500 ppm, evaluation 7-9 days after inoculation, read-out: efficacy. As to the method:
Thereafter, the plants are placed in a greenhouse at 90% relative atmospheric humidity and a temperature of 22° C.

Data set [3] is described as follows: logP by LC-MS on reversed-phase columns (C 18), method [b], acidic range pH 2.7. It counts as physicochemical. Particulars: pH 2.7, log p. The protocol: as §1
[b] The LC-MS determination in the acidic range is carried out at pH 2.7 using the mobile phases 0.1% aqueous formic acid and acetonitrile (contains 0.1% formic acid), linear gradient from 10% acetonitrile to 95% acetonitrile.

A value given as a limit tells only on which side of the number the result lay.

For orientation: chromatographic logP means lipophilicity estimated from chromatographic retention. A low value points to a more hydrophilic compound. For the molecule `COCc1cccc(Nc2ncc(F)c(NC3CCC3)n2)c1` [Example 8], the chromatographic logP in data set [1] (pH 2.3, log p) worked out at 1.5; in data set [2] it was 2.95. The pest or weed control at 500 ppm in the data set on Sphaerotheca fuliginea and in the data set with Leptosphaeria nodorum was at least 70% in each case.

`COCc1cccc(Nc2ncc(Cl)c(N(C)C(C)C)n2)c1` [Example 29]: the chromatographic logP in data set [1] (pH 2.3, log p) was found to be 2.56; in data set [2], 4. Moreover, the pest or weed control at 500 ppm with Leptosphaeria nodorum is at least 70%.

Turning to `CCS(=O)(=O)C(C)c1cccc(Nc2ncc(C(F)(F)F)c(NC3CCC3)n2)c1` (stereo not shown) [Example 40, N^4-cyclobutyl-N^2-{3-[1-(ethylsulphonyl)ethyl]phenyl}-5-(trifluoromethyl)pyrimidine-2,4-diamine], the chromatographic logP stood at 2.89 in data set [3] and 2.89 in data set [1] (pH 2.3, logP (pH2.3)). Besides, the pest or weed control at 500 ppm in the data set on Sphaerotheca fuliginea and with Leptosphaeria nodorum was at least 70% each time.

For the molecule `CC[S+]([O-])C(C)c1cccc(Nc2ncc(C(F)(F)F)c(NC3CCC3)n2)c1` (stereo not shown) [Example 43, N^4-Cyclobutyl-N^2-{3-[1-(ethylsulphinyl)ethyl]phenyl}-5-(trifluoromethyl)pyrimidine-2,4-diamine], the chromatographic logP turned out to be 2.55 in data set [3] and 2.55 in data set [1] (pH 2.3, logP (pH2.3)). The pest or weed control at 500 ppm in the data set on Sphaerotheca fuliginea and in the data set on Leptosphaeria nodorum was at least 70% in each case.

On to `COCc1cccc(Nc2ncc(Cl)c(NCC#N)n2)c1` [Example 51], for which the chromatographic logP in data set [1] (pH 2.3, log p) turned out to be 1.68; in data set [2] it was 2.09.

On to `COCc1cccc(Nc2ncc(Cl)c(NCCCN3CCCCCC3=O)n2)c1` [Example 52], for which, in data set [1] (pH 2.3), the log p was 1.67[a].

In the case of `COCc1cccc(Nc2ncc(Cl)c(NC3CC(C)C3)n2)c1` (stereo not shown) [Example 198], in data set [1] (pH 2.3, log p), the chromatographic logP was found to be 4.04. In addition, the pest or weed control at 500 ppm with Sphaerotheca fuliginea and in the data set with Leptosphaeria nodorum was at least 70% each time.

As to `COCCCOC(C)c1cccc(Nc2ncc(Cl)c(NC3CC3)n2)c1` (stereo not shown) [Example 256, 5-Chloro-N4-cyclopropyl-N2-{3-[1-(3-methoxypropoxy)ethyl]phenyl}pyrimidine-2,4-diamine], the chromatographic logP was 2.2 in data set [3]; 2.2 in data set [1] (pH 2.3, logP (pH2.3)); 3.62 in data set [2].

As for `Clc1ncc(Br)c(NC2CCC2)n1` [Example V-2, 5-Bromo-2-chloro-N-cyclobutylpyrimidin-4-amine], the chromatographic logP in data set [1] (pH 2.3, logP (pH2.3)) amounted to 2.86.

For `Clc1ncc(I)c(NC2CCC2)n1` [Example V-3, 2-Chloro-N-cyclobutyl-5-iodine-pyrimidin-4-amine], the “logP (pH2.3)” value in data set [1] (pH 2.3, HPLC reversed-phase C 18) is listed as 3.08.

Take `Clc1ncc(Cl)c(NC2CC2)n1` [Example V-4, 2,5-Dichloro-N-cyclopropylpyrimidin-4-amine]: the chromatographic logP in data set [1] (pH 2.3, logP (pH2.3)) is 1.77.

In the case of `FC(F)(F)c1cnc(Cl)nc1NC1CC1` [Example V-21, 2-Chloro-N-cyclopropyl-5-(trifluoromethyl)pyrimidin-4-amine], the chromatographic logP in data set [1] (pH 2.3, logP (pH2.3)) is 2.38.

In turn, `FC(F)(F)c1cnc(Cl)nc1NCC1CC1` [Example V-22, 2-Chloro-N-(cyclopropylmethyl)-5-(trifluoromethyl)pyrimidin-4-amine] returned a chromatographic logP in data set [1] (pH 2.3, logP (pH2.3)) of 2.98.

`CCC(SC)c1cccc(N)c1` (stereo not shown) [IVc-I-1, 3-[1-(Methylsulphanyl)propyl]aniline] registered a chromatographic logP in data set [1] (pH 2.3, logP (pH2.3)) of 1.49.

Turning to `CSC(C)c1cccc(N)c1` (stereo not shown) [IVc-I-2], the “logP (pH2.3)” value in data set [1] (pH 2.3) stood at 1.03.

The molecule `CCSC(CC)c1cccc(N)c1` (stereo not shown) [IVc-I-3, 3-[1-(Ethylsulphanyl)propyl]aniline] displayed a chromatographic logP in data set [1] (pH 2.3, logP (pH2.3)) of 1.94.

In data set [1] (pH 2.3, logP (pH2.3)), `CCSC(C)c1cccc(N)c1` (stereo not shown) [IVc-I-4, 3-[1-(Ethylsulphanyl)ethyl]aniline] displayed a chromatographic logP of 1.46.

`COCC(O)c1cccc(N)c1` (stereo not shown) [IVc-I-5, 1-(3-Aminophenyl)-2-methoxyethanol] came in with a chromatographic logP in data set [1] (pH 2.3, logP (pH2.3)) of 0.51.

`COCCOC(c1cccc(N)c1)C(F)(F)F` (stereo not shown) [IVc-I-6, 3-[2,2,2-Trifluoro-1-(2-methoxyethoxy)ethyl]aniline] showed a chromatographic logP in data set [1] (pH 2.3, logP (pH2.3)) of 1.64.

Regarding `COCC(O)c1cccc(N)c1` (stereo not shown) [IVc-I-7, 1-(3-Aminophenyl)-2-methoxyethanol], in data set [1] (pH 2.3), the “logP (pH2.3)” value was determined as 0.73.

In data set [1] (pH 2.3, logP (pH2.3)), `CC(O)c1cccc(Nc2ncc(Br)c(NC3CC3)n2)c1` (stereo not shown) [Ic-IV-2, 1-(3 -{[5-Bromo-4-(cyclopropylamino)pyrimidin-2-yl]amino}phenyl)ethanol] yielded a chromatographic logP of 1.31.

Regarding `CC(O)c1cccc(Nc2ncc(C(F)(F)F)c(NC3CC3)n2)c1` (stereo not shown) [Ic-IV-3, 1-(3 -{[4-(Cyclopropylamino)-5-(trifluoromethyl)pyrimidin-2-yl]amino}phenyl)ethanol], the chromatographic logP in data set [1] (pH 2.3, logP (pH2.3)) amounted to 2.01.

As for `CCC(Cl)c1cccc([N+](=O)[O-])c1` (stereo not shown) [VIIa-1, 1-(1-Chloropropyl)-3-nitrobenzene], the chromatographic logP in data set [1] (pH 2.3, logP (pH2.3)) stood at 3.31.

Turning to `CCC(SC)c1cccc([N+](=O)[O-])c1` (stereo not shown) [VIc-I-1, 1-[1-(Methylsulphanyl)propyl]-3-nitrobenzene], the chromatographic logP in data set [1] (pH 2.3, logP (pH2.3)) came out at 3.51.

In data set [1] (pH 2.3, logP (pH2.3)), `CSC(C)c1cccc([N+](=O)[O-])c1` (stereo not shown) [VIc-I-2, 1-[1-(Methylsulphanyl)ethyl]-3-nitrobenzene] displayed a chromatographic logP of 3.06.

`CCSC(CC)c1cccc([N+](=O)[O-])c1` (stereo not shown) [VIc-I-3, 1-[1-(Ethylsulphanyl)propyl]-3-nitrobenzene]: in data set [1] (pH 2.3, logP (pH2.3)), the chromatographic logP was 3.96.

The molecule `CCSC(C)c1cccc([N+](=O)[O-])c1` (stereo not shown) [VIc-I-4, 1-[1-(Ethylsulphanyl)ethyl]-3-nitrobenzene] showed a chromatographic logP in data set [1] (pH 2.3, logP (pH2.3)) of 3.48.

In data set [1] (pH 2.3, logP (pH2.3)), `CCCSc1cccc(Nc2ncc(C(F)(F)F)c(Cl)n2)c1` [Xa-1, 4-Chloro-N-[3-(propylsulphanyl)phenyl]-5-(trifluoromethyl)pyrimidin-2-amine] yielded a chromatographic logP of 4.99.

Consider `CC(C)Sc1cccc(Nc2ncc(C(F)(F)F)c(Cl)n2)c1` [Xa-2, 4-Chloro-N-[3-(propan-2-ylsulphanyl)phenyl]-5-(trifluoromethyl)pyrimidin-2-amine], for which the chromatographic logP in data set [1] (pH 2.3, logP (pH2.3)) was determined as 4.93.

`CC(C)CCSc1cccc(Nc2ncc(C(F)(F)F)c(Cl)n2)c1` [Xa-3, 4-Chloro-N-{3-[(3-methylbutyl)sulphanyl]phenyl}-5-(trifluoromethyl)pyrimidin-2-amine] showed a chromatographic logP in data set [1] (pH 2.3, logP (pH2.3)) of 5.79.

The molecule `CC(C)CCSc1cccc(Nc2ncc(Cl)c(Cl)n2)c1` [Xa-4, 4,5 -Dichloro-N-{3-[(3-methylbutyl)sulphanyl]phenyl}pyrimidin-2-amine] showed a chromatographic logP in data set [1] (pH 2.3, logP (pH2.3)) of 4.98.

For the molecule `CCCSc1cccc(Nc2ncc(Cl)c(Cl)n2)c1` [Xa-5, 4,5-Dichloro-N-[3-(propylsulphanyl)phenyl]pyrimidin-2-amine], in data set [1] (pH 2.3, logP (pH2.3)), the chromatographic logP turned out to be 4.1.

`CC(C)Sc1cccc(Nc2ncc(Cl)c(Cl)n2)c1` [Xa-6, 4,5-Dichloro-N-[3-(propan-2-ylsulphanyl)phenyl]pyrimidin-2-amine]: in data set [1] (pH 2.3, logP (pH2.3)), the chromatographic logP came out at 4.04.

`CC(C)CSc1cccc(Nc2ncc(C(F)(F)F)c(Cl)n2)c1` [Xa-7, 4-Chloro-N-{3-[(2-methylpropyl)sulphanyl]phenyl}-5-(trifluoromethyl)pyrimidin-2-amine] had a chromatographic logP in data set [1] (pH 2.3, logP (pH2.3)) of 5.4.

`CSC(C)c1cccc(Nc2ncc(C(F)(F)F)c(Cl)n2)c1` (stereo not shown) [Xa-8, 4-Chloro-N-{3-[1-(methylsulphanyl)ethyl]phenyl}-5-(trifluoromethyl)pyrimidin-2-amine]: the chromatographic logP in data set [1] (pH 2.3, logP (pH2.3)) turned out to be 4.5.

`COC(C)c1cccc(Nc2ncc(C(F)(F)F)c(Cl)n2)c1` (stereo not shown) [Xa-9, 4-Chloro-N-[3-(1-methoxyethyl)phenyl]-5-(trifluoromethyl)pyrimidin-2-amine]: in data set [1] (pH 2.3, logP (pH2.3)), the chromatographic logP was determined as 3.89.

Consider `CSc1cccc(Nc2ncc(C(F)(F)F)c(Cl)n2)c1` [Xa-11, 4-Chloro-N-[3-(methylsulphanyl)phenyl]-5-(trifluoromethyl)pyrimidin-2-amine], for which the chromatographic logP in data set [1] (pH 2.3, logP (pH2.3)) was 4.11.

On to `CCSC(C)c1cccc(Nc2ncc(C(F)(F)F)c(Cl)n2)c1` (stereo not shown) [Xa-12, 4-Chloro-N-{3-[1-(ethylsulphanyl)ethyl]phenyl}-5-(trifluoromethyl)pyrimidin-2-amine], for which the chromatographic logP in data set [1] (pH 2.3, logP (pH2.3)) came to 4.9.

In data set [1] (pH 2.3, logP (pH2.3)), `COC(C)c1cccc(Nc2ncc(Br)c(Cl)n2)c1` (stereo not shown) [Xa-13, 5-Bromo-4-chloro-N-[3-(1-methoxyethyl)phenyl]pyrimidin-2-amine] registered a chromatographic logP of 3.09.

For `CC(O)c1cccc(Nc2ncc(Cl)c(Cl)n2)c1` (stereo not shown) [Xa-14, 1-{3-[(4,5-Dichloropyrimidin-2-yl)amino]phenyl}ethanol], the chromatographic logP in data set [1] (pH 2.3, logP (pH2.3)) amounted to 1.98.

Take `CC(O)c1cccc(Nc2ncc(C(F)(F)F)c(Cl)n2)c1` (stereo not shown) [Xa-15, 1-(3-{[4-Chloro-5-(trifluoromethyl)pyrimidin-2-yl]amino}phenyl)ethanol]: the chromatographic logP in data set [1] (pH 2.3, logP (pH2.3)) amounted to 2.81.

In the case of `CCCS(=O)(=O)c1cccc(Nc2ncc(C(F)(F)F)c(Cl)n2)c1` [Xc-1, 4-chloro-N-[3-(propylsulphonyl)phenyl]-5-(trifluoromethyl)pyrimidin-2-amine], in data set [1] (pH 2.3, logP (pH2.3)), the chromatographic logP came to 3.29.

Source of the values: patent publication US20110245284A1, “Alkoxy- and Alkylthio-Substituted Anilinopyrimidines” (Bayer CropScience AG, priority 2008, published 2011).
